# In patent US9375497B2, “[F-18]-labeled L-glutamic acid, [F-18]-labeled L-glutamine, derivatives thereof and use thereof and processes for their preparation” (BAYER SCHERING PHARMA AKTIENGESELLSCHAFT, priority 2006, dated 2016):
# Key:
# [1] = system: murine B16F1 melanoma model in C57BI6 mice; assay: Tumor enrichment and tissue distribution, B16F1 melanoma model; conditions: for Tumor/tissue quotient, Blood / Tumor/tissue quotient, Brain / Tumor/tissue quotient, Fat / Tumor/tissue quotient, Heart / Tumor/tissue quotient, Intestine / Tumor/tissue quotient, Kidney / Tumor/tissue quotient, Liver / Tumor/tissue quotient, Lung / Tumor/tissue quotient, Muscle / Tumor/tissue quotient, Ovary / Tumor/tissue quotient, Skin / Tumor/tissue quotient, Spleen / Tumor/tissue quotient, Stomach / Tumor/tissue quotient, Uterus: single i.v.; for Tissue uptake, Blood / Tissue uptake, Brain / Tissue uptake, Fat / Tissue uptake, Heart / Tissue uptake, Intestine / Tissue uptake, Kidney / Tissue uptake, Liver / Tissue uptake, Lung / Tissue uptake, Muscle / Tissue uptake, Ovary / Tissue uptake, Skin / Tissue uptake, Spleen / Tissue uptake, Stomach / Tissue uptake, Tumor / Tissue uptake, Uterus: single i.v. 370 kBq; for tumor/blood quotient / tumor/blood quotient, factor higher than for [^14C]5-glutamic acid / tumor/liver quotient / tumor/liver quotient, factor higher than for [^14C]5-glutamic acid: B16F1 melanoma model
# Protocol: For the evaluation of the tumor enrichment and the tissue distribution in experimental animals, [^18F]-4-glutamic acid was tested in a murine F9 teratocarcinoma model in NMRI nude mice and a murine B16F1 melanoma model in C57BI6 mice.
# For this, 1×10^6 cells (F9) or 5×10^5 cells (B16F1) respectively were suspended in 100 μl of phosphate-buffered physiological saline solution and inoculated subcutaneously into the right, rear flank of the corresponding experimental animal species (NMRI for F9 and 057-BI6 for B16F1) (Berndorff et al. Clin. Cancer Res. 2005, 11, 2005). […] [^18F]-4-Glutamic acid (370 kBq, in 100 μl of physiological saline solution) was administered intravenously to the tail vein. After 15; 60 and 120 min in each case, the animals were killed, organ and tumor removed, weighed and measured for radioactive content.
# [2] = system: HT29 (colonic carcinoma) cells; assay: Tumor cell uptake in HT29 cells; type: cell-based, human; conditions: compared to [^18F]FDG
# Protocol: For the evaluation of the tumor cell uptake of [^18F]glutamic acid, cell uptake experiments were carried out in human A549 (non-small-cell bronchial carcinoma) and HT29 (colonic carcinoma) cells. The tumor cell uptake of the glutamic acid derivatives was compared to
# [^18F]FDG (gold standard for oncological PET investigations).
smiles,measurement,setting,value
"NC(CC([18F])C(=O)O)C(=O)O (centres unmarked) [[^18F]4-glutamic acid, 4-[F-18]fluoroglutamic acid]","Tumor/tissue quotient, Blood",[1]; 0.25 h (times as Table 3),1.21
same,"Tumor/tissue quotient, Brain",[1]; 0.25 h (times as Table 3),4.89
same,"Tumor/tissue quotient, Fat",[1]; 0.25 h (times as Table 3),3.95
same,"Tumor/tissue quotient, Heart",[1]; 0.25 h (times as Table 3),1.06
same,"Tumor/tissue quotient, Intestine",[1]; 0.25 h (times as Table 3),1.19
same,"Tumor/tissue quotient, Kidney",[1]; 0.25 h (times as Table 3),0.31
same,"Tumor/tissue quotient, Liver",[1]; 0.25 h (times as Table 3),0.93
same,"Tumor/tissue quotient, Lung",[1]; 0.25 h (times as Table 3),0.32
same,"Tumor/tissue quotient, Muscle",[1]; 0.25 h (times as Table 3),1.72
same,"Tumor/tissue quotient, Ovary",[1]; 0.25 h (times as Table 3),1.03
same,"Tumor/tissue quotient, Skin",[1]; 0.25 h (times as Table 3),1.49
same,"Tumor/tissue quotient, Spleen",[1]; 0.25 h (times as Table 3),0.89
same,"Tumor/tissue quotient, Stomach",[1]; 0.25 h (times as Table 3),1.05
same,"Tumor/tissue quotient, Uterus",[1]; 0.25 h (times as Table 3),0.56
same,"Tissue uptake, Blood",[1]; 0.25 h,2.93 % dose/g
same,"Tissue uptake, Brain",[1]; 0.25 h,0.73 % dose/g
same,"Tissue uptake, Fat",[1]; 0.25 h,0.92 % dose/g
same,"Tissue uptake, Heart",[1]; 0.25 h,3.36 % dose/g
same,"Tissue uptake, Intestine",[1]; 0.25 h,3.00 % dose/g
same,"Tissue uptake, Kidney",[1]; 0.25 h,11.35 % dose/g
same,"Tissue uptake, Liver",[1]; 0.25 h,3.81 % dose/g
same,"Tissue uptake, Lung",[1]; 0.25 h,11.10 % dose/g
same,"Tissue uptake, Muscle",[1]; 0.25 h,2.19 % dose/g
same,"Tissue uptake, Ovary",[1]; 0.25 h,3.57 % dose/g
same,"Tissue uptake, Skin",[1]; 0.25 h,2.43 % dose/g
same,"Tissue uptake, Spleen",[1]; 0.25 h,4.07 % dose/g
same,"Tissue uptake, Stomach",[1]; 0.25 h,3.41 % dose/g
same,"Tissue uptake, Tumor",[1]; 0.25 h,3.55 % dose/g
same,"Tissue uptake, Uterus",[1]; 0.25 h,7.17 % dose/g
same,"Tumor/tissue quotient, Blood",[1]; 1.0 h (times as Table 3),5.25
same,"Tumor/tissue quotient, Brain",[1]; 1.0 h (times as Table 3),4.7
same,"Tumor/tissue quotient, Fat",[1]; 1.0 h (times as Table 3),14.16
same,"Tumor/tissue quotient, Heart",[1]; 1.0 h (times as Table 3),3.54
same,"Tumor/tissue quotient, Intestine",[1]; 1.0 h (times as Table 3),1.56
same,"Tumor/tissue quotient, Kidney",[1]; 1.0 h (times as Table 3),1.25
same,"Tumor/tissue quotient, Liver",[1]; 1.0 h (times as Table 3),3.63
same,"Tumor/tissue quotient, Lung",[1]; 1.0 h (times as Table 3),1.51
same,"Tumor/tissue quotient, Muscle",[1]; 1.0 h (times as Table 3),4.3
same,"Tumor/tissue quotient, Ovary",[1]; 1.0 h (times as Table 3),4.38
same,"Tumor/tissue quotient, Skin",[1]; 1.0 h (times as Table 3),5.43
same,"Tumor/tissue quotient, Spleen",[1]; 1.0 h (times as Table 3),2.81
same,"Tumor/tissue quotient, Stomach",[1]; 1.0 h (times as Table 3),4.02
same,"Tumor/tissue quotient, Uterus",[1]; 1.0 h (times as Table 3),3.84
same,"Tissue uptake, Blood",[1]; 1.0 h,0.48 % dose/g
same,"Tissue uptake, Brain",[1]; 1.0 h,0.49 % dose/g
same,"Tissue uptake, Fat",[1]; 1.0 h,0.18 % dose/g
same,"Tissue uptake, Heart",[1]; 1.0 h,0.71 % dose/g
same,"Tissue uptake, Intestine",[1]; 1.0 h,1.28 % dose/g
same,"Tissue uptake, Kidney",[1]; 1.0 h,2.25 % dose/g
same,"Tissue uptake, Liver",[1]; 1.0 h,0.64 % dose/g
same,"Tissue uptake, Lung",[1]; 1.0 h,1.47 % dose/g
same,"Tissue uptake, Muscle",[1]; 1.0 h,0.53 % dose/g
same,"Tissue uptake, Ovary",[1]; 1.0 h,0.58 % dose/g
same,"Tissue uptake, Skin",[1]; 1.0 h,0.48 % dose/g
same,"Tissue uptake, Spleen",[1]; 1.0 h,0.81 % dose/g
same,"Tissue uptake, Stomach",[1]; 1.0 h,0.59 % dose/g
same,"Tissue uptake, Tumor",[1]; 1.0 h,2.14 % dose/g
same,"Tissue uptake, Uterus",[1]; 1.0 h,0.69 % dose/g
same,"Tumor/tissue quotient, Blood",[1]; 2.0 h (times as Table 3),7.93
same,"Tumor/tissue quotient, Brain",[1]; 2.0 h (times as Table 3),3.55
same,"Tumor/tissue quotient, Fat",[1]; 2.0 h (times as Table 3),8.85
same,"Tumor/tissue quotient, Heart",[1]; 2.0 h (times as Table 3),5.06
same,"Tumor/tissue quotient, Intestine",[1]; 2.0 h (times as Table 3),0.87
same,"Tumor/tissue quotient, Kidney",[1]; 2.0 h (times as Table 3),2.22
same,"Tumor/tissue quotient, Liver",[1]; 2.0 h (times as Table 3),4.42
same,"Tumor/tissue quotient, Lung",[1]; 2.0 h (times as Table 3),2.34
same,"Tumor/tissue quotient, Muscle",[1]; 2.0 h (times as Table 3),6.95
same,"Tumor/tissue quotient, Ovary",[1]; 2.0 h (times as Table 3),3.02
same,"Tumor/tissue quotient, Skin",[1]; 2.0 h (times as Table 3),5.94
same,"Tumor/tissue quotient, Spleen",[1]; 2.0 h (times as Table 3),4.03
same,"Tumor/tissue quotient, Stomach",[1]; 2.0 h (times as Table 3),4.24
same,"Tumor/tissue quotient, Uterus",[1]; 2.0 h (times as Table 3),2.59
same,"Tissue uptake, Blood",[1]; 2.0 h,0.16 % dose/g
same,"Tissue uptake, Brain",[1]; 2.0 h,0.36 % dose/g
same,"Tissue uptake, Fat",[1]; 2.0 h,0.16 % dose/g
same,"Tissue uptake, Heart",[1]; 2.0 h,0.28 % dose/g
same,"Tissue uptake, Intestine",[1]; 2.0 h,1.46 % dose/g
same,"Tissue uptake, Kidney",[1]; 2.0 h,0.57 % dose/g
same,"Tissue uptake, Liver",[1]; 2.0 h,0.29 % dose/g
same,"Tissue uptake, Lung",[1]; 2.0 h,0.56 % dose/g
same,"Tissue uptake, Muscle",[1]; 2.0 h,0.24 % dose/g
same,"Tissue uptake, Ovary",[1]; 2.0 h,0.45 % dose/g
same,"Tissue uptake, Skin",[1]; 2.0 h,0.22 % dose/g
same,"Tissue uptake, Spleen",[1]; 2.0 h,0.31 % dose/g
same,"Tissue uptake, Stomach",[1]; 2.0 h,0.30 % dose/g
same,"Tissue uptake, Tumor",[1]; 2.0 h,1.27 % dose/g
same,"Tissue uptake, Uterus",[1]; 2.0 h,0.76 % dose/g
same,tumor/blood quotient,[1]; 1 h p.i.,5.3
same,"tumor/blood quotient, factor higher than for [^14C]5-glutamic acid",[1]; 1 h p.i.,2
same,tumor/liver quotient,[1]; 1 h p.i.,3.6
same,"tumor/liver quotient, factor higher than for [^14C]5-glutamic acid",[1]; 1 h p.i.,4.6
same,tumor/blood quotient,[1]; 2 h p.i.,7.9
same,"tumor/blood quotient, factor higher than for [^14C]5-glutamic acid",[1]; 2 h p.i.,3.5
same,tumor/liver quotient,[1]; 2 h p.i.,4.4
same,"tumor/liver quotient, factor higher than for [^14C]5-glutamic acid",[1]; 2 h p.i.,5.5
same,tumor enrichment,"[1]; B16F1 melanoma, 1 h after intravenous administration",2.14 % ID/g
same,maximal tumor enrichment,"[1]; B16 melanoma, after intravenous injection (15 min)",3.55 % ID/g
same,tumor cell uptake,[2],surprisingly high uptake
